Source: PMC3672142, “A Binding-Site Barrier Affects Imaging Efficiency of High Affinity Amyloid-Reactive Peptide Radiotracers In Vivo” (PLoS ONE, 2013)
No end group written: not given here.

Legend:
[1] = tested on: AA amyloid; design: species or system H2-Ld-huIL-6 Tg Balb/c transgenic mice; details: mouse, in vivo, iv
Description: AA amyloidosis was induced in H2-Ld-huIL-6 Tg Balb/c transgenic mice that constitutively express the human interleukin-6 transgene, [21] by iv administration of 10 µg of isolated amyloid enhancing factor (AEF – a suspension of AA amyloid fibril extract, [22]) in 100 µL of sterile phosphate-buffered saline (PBS). Mice used in these studies were 4–6 wk post induction. These studies were carried out in strict accordance with a protocol approved by the University of Tennessee Institutional Animal Care and Use Committee. All procedures were approved by the IACUC and were performed in accordance with the guidelines provided by OLAW and the Guide for the Care and Use of Laboratory Animals.
Mice, wild type or those with AA-amyloid, were injected iv in the lateral tail vein with ∼10 µg (∼150 µCi) of radioiodinated (^123I or ^125I) peptide p5, p5R, p5R(1–24) or p5R mixed with 1 mg of unlabeled p5R peptide. […]
Samples of muscle, liver, spleen, pancreas, kidneys, heart, stomach, small and large intestines and lung tissue were harvested post mortem from every mouse. Each sample was placed into a tared, plastic vial, weighed and the ^125I or ^123I radioactivity measured using an automated Wizard 3 gamma counter (1480 Wallac Gamma Counter, Perkin Elmer). The biodistribution data were expressed as % injected dose/g tissue (% ID/g). […]

[2] = tested on: cardiac and pancreatic amyloid; details: SAP imaging; no reference printed at this sentence (refs [14], [15] for SAP imaging); cited from earlier work
Source text: Currently, there are no FDA-approved agents available in the USA for quantitative whole body imaging of visceral amyloid in vivo. […] However, there is no evidence that either this or the recently FDA-approved Aβ tracer Amyvid™ will facilitate detection of amyloid deposits in other visceral organs. Numerous amyloid-binding radiotracers have been described, e.g ...

Substance	radioactivity in liver, spleen, pancreas and intestines compared to WT mice [1]	detection of cardiac and pancreatic amyloid [2]
GGGYSRAQRAQARQARQAQRAQRAQARQARQ [p5R]	significant radioactivity seen in the liver, spleen, pancreas, and intestines as compared to the WT mice	–
SAP: serum amyloid P component, used as 123I-SAP for planar scintigraphic imaging of amyloid	–	at best, poorly detected
